{"source": "ChEMBL document CHEMBL1201862", "about": "“PubChem BioAssay data set” (2004)", "assay_in_all_cases": "NCI-60 cell line screen, 48 h", "key": {"NCI-H23": {"system": "NCI-H23"}, "HL-60": {"system": "HL-60"}, "NCI/ADR-RES": {"system": "NCI/ADR-RES"}, "NCI-H226": {"system": "NCI-H226"}, "SF-295": {"system": "SF-295"}, "MDA-MB-435": {"system": "MDA-MB-435"}, "A549": {"system": "A549"}, "OVCAR-3": {"system": "OVCAR-3"}, "RXF 393": {"system": "RXF 393"}, "UACC-62": {"system": "UACC-62"}, "OVCAR-5": {"system": "OVCAR-5"}, "A498": {"system": "A498"}, "SF-539": {"system": "SF-539"}, "PC-3": {"system": "PC-3"}, "SK-MEL-2": {"system": "SK-MEL-2"}, "HT-29": {"system": "HT-29"}, "TK-10": {"system": "TK-10"}, "MOLT-4": {"system": "MOLT-4"}, "Malme-3M": {"system": "Malme-3M"}, "COLO 205": {"system": "COLO 205"}, "HCT-116": {"system": "HCT-116"}, "MCF7": {"system": "MCF7"}, "OVCAR-8": {"system": "OVCAR-8"}, "HOP-92": {"system": "HOP-92"}, "KM12": {"system": "KM12"}, "ACHN": {"system": "ACHN"}, "MDA-MB-231": {"system": "MDA-MB-231"}, "Hs-578T": {"system": "Hs-578T"}, "NCI-H460": {"system": "NCI-H460"}, "DU-145": {"system": "DU-145"}, "SK-MEL-28": {"system": "SK-MEL-28"}, "U-251": {"system": "U-251"}, "NCI-H522": {"system": "NCI-H522"}, "SK-OV-3": {"system": "SK-OV-3"}, "SR": {"system": "SR"}, "IGROV-1": {"system": "IGROV-1"}, "HOP-62": {"system": "HOP-62"}, "LOX IMVI": {"system": "LOX IMVI"}, "786-0": {"system": "786-0"}, "M14": {"system": "M14"}, "CCRF-CEM": {"system": "CCRF-CEM"}, "CAKI-1": {"system": "CAKI-1"}, "HCT-15": {"system": "HCT-15"}, "OVCAR-4": {"system": "OVCAR-4"}, "SK-MEL-5": {"system": "SK-MEL-5"}, "UACC-257": {"system": "UACC-257"}, "K562": {"system": "K562"}, "SNB-75": {"system": "SNB-75"}, "SNB-19": {"system": "SNB-19"}, "SF-268": {"system": "SF-268"}, "T47D": {"system": "T47D"}, "BT-549": {"system": "BT-549"}, "SW-620": {"system": "SW-620"}, "RPMI-8226": {"system": "RPMI-8226"}, "UO-31": {"system": "UO-31"}}, "note": "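Following 48 hours of exposure in 96-well plates, responses at five concentrations were used to interpolate endpoints linearly. The concentration for 50% growth inhibition is given as GI50.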 Activity calls are given as the source filed them. Rule as the data show it: active = GI50 up to about 1.1 µM and inactive = higher."}
{"smiles": "Cc1ccc(C(=O)CC(Cl)=C(Cl)Cl)cc1", "values": [{"measurement": "GI50", "setting": "NCI-H23", "result": "> 100 µM (inactive)"}, {"measurement": "GI50", "setting": "HL-60", "result": "54 µM (inactive)"}, {"measurement": "GI50", "setting": "NCI/ADR-RES", "result": "> 100 µM (inactive)"}, {"measurement": "GI50", "setting": "NCI-H226", "result": "85.5 µM (inactive)"}, {"measurement": "GI50", "setting": "SF-295", "result": "25.6 µM (inactive)"}, {"measurement": "GI50", "setting": "MDA-MB-435", "result": "55.7 µM (inactive)"}, {"measurement": "GI50", "setting": "A549", "result": "> 100 µM (inactive)"}, {"measurement": "GI50", "setting": "OVCAR-3", "result": "45.6 µM (inactive)"}, {"measurement": "GI50", "setting": "RXF 393", "result": "78.5 µM (inactive)"}, {"measurement": "GI50", "setting": "UACC-62", "result": "> 100 µM (inactive)"}, {"measurement": "GI50", "setting": "OVCAR-5", "result": "> 100 µM (inactive)"}, {"measurement": "GI50", "setting": "A498", "result": "> 100 µM (inactive)"}, {"measurement": "GI50", "setting": "SF-539", "result": "> 100 µM (inactive)"}, {"measurement": "GI50", "setting": "PC-3", "result": "> 100 µM (inactive)"}, {"measurement": "GI50", "setting": "SK-MEL-2", "result": "> 100 µM (inactive)"}, {"measurement": "GI50", "setting": "HT-29", "result": "> 100 µM (inactive)"}, {"measurement": "GI50", "setting": "TK-10", "result": "> 100 µM (inactive)"}, {"measurement": "GI50", "setting": "MOLT-4", "result": "20.5 µM (inactive)"}, {"measurement": "GI50", "setting": "Malme-3M", "result": "> 100 µM (inactive)"}, {"measurement": "GI50", "setting": "COLO 205", "result": "> 100 µM (inactive)"}, {"measurement": "GI50", "setting": "HCT-116", "result": "61.9 µM (inactive)"}, {"measurement": "GI50", "setting": "MCF7", "result": "> 100 µM (inactive)"}, {"measurement": "GI50", "setting": "OVCAR-8", "result": "> 100 µM (inactive)"}, {"measurement": "GI50", "setting": "HOP-92", "result": "> 100 µM (inactive)"}, {"measurement": "GI50", "setting": "KM12", "result": "> 100 µM (inactive)"}, {"measurement": "GI50", "setting": "ACHN", "result": "> 100 µM (inactive)"}, {"measurement": "GI50", "setting": "MDA-MB-231", "result": "98.2 µM (inactive)"}, {"measurement": "GI50", "setting": "Hs-578T", "result": "> 100 µM (inactive)"}, {"measurement": "GI50", "setting": "NCI-H460", "result": "> 100 µM (inactive)"}, {"measurement": "GI50", "setting": "DU-145", "result": "> 100 µM (inactive)"}, {"measurement": "GI50", "setting": "SK-MEL-28", "result": "> 100 µM (inactive)"}, {"measurement": "GI50", "setting": "U-251", "result": "> 100 µM (inactive)"}, {"measurement": "GI50", "setting": "NCI-H522", "result": "49.3 µM (inactive)"}, {"measurement": "GI50", "setting": "SK-OV-3", "result": "> 100 µM (inactive)"}, {"measurement": "GI50", "setting": "SR", "result": "25.7 µM (inactive)"}, {"measurement": "GI50", "setting": "IGROV-1", "result": "> 100 µM (inactive)"}, {"measurement": "GI50", "setting": "HOP-62", "result": "> 100 µM (inactive)"}, {"measurement": "GI50", "setting": "LOX IMVI", "result": "31.7 µM (inactive)"}, {"measurement": "GI50", "setting": "786-0", "result": "63.1 µM (inactive)"}, {"measurement": "GI50", "setting": "M14", "result": "> 100 µM (inactive)"}, {"measurement": "GI50", "setting": "CCRF-CEM", "result": "25.8 µM (inactive)"}, {"measurement": "GI50", "setting": "CAKI-1", "result": "38.8 µM (inactive)"}, {"measurement": "GI50", "setting": "HCT-15", "result": 67.1, "unit": "µM"}, {"measurement": "GI50", "setting": "OVCAR-4", "result": "63.2 µM (inactive)"}, {"measurement": "GI50", "setting": "SK-MEL-5", "result": "> 100 µM (inactive)"}, {"measurement": "GI50", "setting": "UACC-257", "result": "65.9 µM (inactive)"}, {"measurement": "GI50", "setting": "K562", "result": "41.6 µM (inactive)"}, {"measurement": "GI50", "setting": "SNB-75", "result": "> 100 µM (inactive)"}, {"measurement": "GI50", "setting": "SNB-19", "result": "> 100 µM (inactive)"}, {"measurement": "GI50", "setting": "SF-268", "result": "> 100 µM (inactive)"}, {"measurement": "GI50", "setting": "T47D", "result": "50.6 µM (inactive)"}, {"measurement": "GI50", "setting": "BT-549", "result": "> 100 µM (inactive)"}, {"measurement": "GI50", "setting": "SW-620", "result": "> 100 µM (inactive)"}, {"measurement": "GI50", "setting": "RPMI-8226", "result": "29.2 µM (inactive)"}, {"measurement": "GI50", "setting": "UO-31", "result": "> 100 µM (inactive)"}]}
